From patent US10966425B2, “Fungicidal compositions” (SYNGENTA PARTICIPATIONS AG, priority 2016, dated 2021)

Legend:
Pyrenophora teres = Pyrenophora teres / barley / leaf disc preventative (net blotch); format: in vivo; details: 200 ppm, barley leaf segments cv. Hasso, 5-7 days after application
Description: Barley leaf segments cv. Hasso are placed on agar in a multiwell plate (24-well format) and sprayed with the formulated test compound diluted in water. The leaf segments are inoculated with a spore suspension of the fungus 2 days after application. The inoculated leaf segments are incubated at 20° C. and 65% rh under a light regime of 12 h light/12 h darkness in a climate cabinet and the activity of a compound is assessed as disease control compared to untreated when an appropriate level of disease damage appears in untreated check leaf segments (5-7 days after application).

melting point [°C]	SMILES	control of Pyrenophora teres (Pyrenophora teres)
112 to 114	CC1(C)N=C(n2cnc3c(F)c(F)ccc32)c2cccc(F)c2C1(C)C [Compound E-50]	–
141 to 143	Cc1ccc2c(ncn2C2=NC3(CC3)C3(CC3)c3ccccc32)c1C [Compound E-58]	–
70 to 71	C=Cc1cccc2c1ncn2C1=NC(C)(C)C(C)(C)c2c(F)cccc21 [Compound E-13]	–
122 to 124	Cc1c(Br)ccc2c1ncn2C1=NC(C)(C)C(C)(C)c2c(F)cccc21 [Compound E-41]	–
145 to 149	Cc1cccc2c1C(=O)C(C)(C)N=C2n1cnc2c(C)c(C)ccc21 [Compound E-27]	–
96 to 101	Cc1cccc2c1C(=O)C(C)(C)N=C2n1cnc2c(C)cccc21 [Compound E-26]	–
122 to 125	Cc1cccc2c1ncn2C1=NC(C)(C)C(C)(C)c2c1ccc(F)c2F [Compound E-46]	–
87 to 88	CCc1cccc2c1ncn2C1=NC(C)(C)C(C)(C)c2c(F)cccc21 [Compound E-14]	–
147 to 151	Cc1cccc2c1ncn2C1=NC(C)(C)C(C)(C)c2c1ccc(Cl)c2F [Compound E-45]	–
142 to 149	Cc1cccc2c1ncn2C1=NC(C)(C)C(F)(F)c2ccccc21	–
118 to 120	Cc1cccc2c1ncn2C1=NC(C)(C)C(C)(C)c2c(F)cccc21 [X.011]	–
52 to 54	Cc1cccc2c1ncn2C1=NC(C)(C)Cc2c(Br)cccc21 [Compound E-38]	–
50 to 51	CC1(C)N=C(n2cnc3c(Cl)cccc32)c2cccc(F)c2C1(C)C [Compound E-17]	–
102 to 103	Cc1c(Cl)ccc2c1ncn2C1=NC(C)(C)C(C)(C)c2c(F)cccc21 [Compound E-42]	–
48 to 49	CC1(C)N=C(n2cnc3c(Br)cccc32)c2cccc(F)c2C1(C)C [Compound E-4]	–
177 to 178	CC1(C)N=C(n2cnc3c4c(ccc32)CCC4)c2cccc(F)c2C1(C)C [Compound E-51]	–
118 to 121	Cc1c(F)ccc2c1ncn2C1=NC(C)(C)C(F)(F)c2ccccc21 [Compound E-32]	–
113 to 114	CC(C)c1cccc2c1ncn2C1=NC(C)(C)C(C)(C)c2c(F)cccc21 [Compound E-12]	–
143 to 145	Cc1ccc2c(ncn2C2=NC(C)(C)Cc3cc(F)ccc32)c1C [Compound E-57]	–
133 to 136	Cc1c(F)ccc2c1ncn2C1=NC(C)(C)C(=O)c2cc(Cl)ccc21 [Compound E-35]	–
196 to 199	Cc1ccc2c(ncn2C2=NC(C)(C)C(=O)c3cc(Cl)ccc32)c1C [Compound E-36]	–
159 to 161	Cc1ccc2c(ncn2C2=NC(C)(C)C(=O)c3ccccc32)c1C [Compound E-25]	–
132 to 133	Cc1cccc2c1ncn2C1=NC2(CCC2)Cc2ccccc21 [Compound E-43]	–
126 to 127	CC1(C)N=C(n2cnc3cc(Cl)c(Cl)cc32)c2cccc(F)c2C1(C)C [Compound E-39]	–
45 to 46	Cc1cccc2c1ncn2C1=NC(C)(C)C(C)(C)c2c(F)cccc21 [Compound E-1]	–
123 to 125	Cc1cccc2c1ncn2C1=NC(C)(C)C(=O)c2ccccc21 [Compound E-10]	–
129 to 133	Cc1cccc2c1ncn2C1=NC(C)(C)C(=O)c2cc(Cl)ccc21 [Compound E-34]	–
178 to 179	COC(=O)c1cccc2c1ncn2C1=NC(C)(C)C(C)(C)c2c(F)cccc21 [Compound E-24]	–
–	Cc1cccc2c1ncn2C1=NC(C)(C)C(C)(C)c2ccccc21 [Compound E-16]	at least 80%
197 to 200	CC1(C)N=C(n2cnc3c(Cl)cccc32)c2ccc(Cl)cc2C1(F)F [Compound E-37]	–
